For 36 compounds, EC50 and relative reporter activity results are on record in patent EP4650002A1 (Ludwig-Maximilians-Universität, priority 2024, dated 2025).

The target of this assay is T1, human TLX (Homo sapiens, UniProt Q9Y466).
T1 construct: expressed in transfected cells; host or cells: HEK293T
In words: Gal4 hybrid reporter gene assay (TLX modulation). The class given is cell-based. Also noted: key to relative reporter activity: fraction of DMSO control (DMSO = 1). To be noted: for EC50: Gal4-TLX hybrid reporter in HEK293T cells, 16 h incubation; for relative reporter activity: DMSO control = 1. Here is the method:
In the Tables, the TLX relative reporter activity is expressed as EC50 (in µM) for each listed compound. "EC50" refers to a measure of the concentration of a compound which induces a biological response halfway between the baseline and maximum after a specified exposure time. […] The EC50 is measured via a hybrid reporter gene assay, employing the transfection of a reporter (firefly luciferase with Gal4 response element), a control gene (Renilla luciferase), a transcriptional activator (Gal4-VP16) and a hybrid receptor consisting of the TLX ligand binding domain (LBD) and the Gal4 DNA binding domain (DBD).
Hybrid reporter gene assays. […] After 24 h, medium was changed to Opti-MEM without supplements and cells were transiently transfected using Lipofectamine LTX reagent (Invitrogen, Carlsbad, CA, USA) according to the manufacturer's protocol. Five hours after transfection, cells were incubated with the test compounds in Opti-MEM supplemented with penicillin (100 U/mL), streptomycin (100 µg/mL) and 0.1% DMSO for 16 h before luciferase activity was measured using the Dual-Glo Luciferase Assay System (Promega) according to the manufacturer's protocol on a Tecan Spark luminometer (Tecan Deutschland GmbH, Crailsheim, Germany). Firefly luminescence was divided by Renilla luminescence and multiplied by 1000 resulting in relative light units (RLU) to normalize for transfection efficiency and cell growth. Fold activation was obtained by dividing the mean RLU of test compound by the mean RLU of the untreated control. All samples were tested in at least three biologically independent experiments in duplicates. For dose-response curve fitting and calculation of EC50 values, the equation "[Agonist] vs. response -- Variable slope (four parameters)" was used in GraphPad Prism (version 7.00, GraphPad Software, La Jolla, CA, USA).
A general note: In a reporter assay the amount or activity of a reporter protein is the signal.

[1] abbreviates: minimal remaining or maximum reporter activity after treatment, in brackets below the EC50, <1 agonism, >1 inverse agonism.

T1 sequence (Q9Y466 155-383 limits assumed): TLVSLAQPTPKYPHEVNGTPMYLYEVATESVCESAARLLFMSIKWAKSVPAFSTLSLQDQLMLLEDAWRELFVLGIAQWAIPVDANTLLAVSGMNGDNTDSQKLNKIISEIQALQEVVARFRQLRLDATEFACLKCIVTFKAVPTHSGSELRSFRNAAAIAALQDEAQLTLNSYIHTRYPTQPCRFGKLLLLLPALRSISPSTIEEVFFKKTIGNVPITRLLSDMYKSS

Compound `Cc1cn(-c2cc(NC(=O)c3ccc(Cl)c4ccccc34)cc(C(F)(F)F)c2)cn1` [compound 31, 4-chloro-N-(3-(4-methyl-1H-imidazol-1-yl)-5-(trifluoromethyl)phenyl)-1-naphthamide] had an EC50 of 1.8 ± 0.4 µM. This compound had a relative reporter activity under setting [1] of 0.34±0.11.
In turn, `Nc1cc(-c2cnoc2)cc(C(F)(F)F)c1` [compound 40, 3-(isoxazol-4-yl)-5-(trifluoromethyl)aniline] displayed an EC50 of 3.2 ± 1.2 µM. Under setting [1], this compound gave a relative reporter activity of 0.47±0.06.
Turning to `Cc1cc(-c2cc(NC(=O)c3ccc(Cl)c(Cl)c3)cc(C(F)(F)F)c2)ccn1` [compound 78, 3,4-dichloro-N-(3-(2-methylpyridin-4-yl)-5-(trifluoromethyl)phenyl)benzamide], the EC50 turned out to be 0.6 ± 0.2 µM. Besides, the relative reporter activity under setting [1] is 0.51±0.5.
The matching figures for `Cc1ccc(C(=O)Nc2cc(-n3cnc(C)c3)cc(C(F)(F)F)c2)cc1` [compound 18, 4-methyl-N-(3-(4-methyl-1H-imidazol-1-yl)-5-(trifluoromethyl)phenyl)benzamide]: 1.4 ± 0.7 µM and 0.59±0.06.
On to `Cc1cc(-c2cc(NC(=O)Cc3ccccc3)cc(C(F)(F)F)c2)ccn1` [compound 76, N-(3-(2-methylpyridin-4-yl)-5-(trifluoromethyl)phenyl)-2-phenylacetamide], for which a half-maximal effect (EC50) was put at 0.3 ± 0.07 µM. Moreover, the relative reporter activity under setting [1] came to 0.12±0.06.
For `Nc1cc(-c2cn[nH]c2)cc(C(F)(F)F)c1` [compound 39, 3-(1H-Pyrazol-4-yl)-5-(trifluoromethyl)aniline], under “at 50 µM”, the relative reporter activity entry is “(0.35±0.06 at 50 µM)”.
With `Nc1cc(-c2ccc3occc3c2)cc(C(F)(F)F)c1` [compound 91, 3-(benzofuran-5-yl)-5-(trifluoromethyl)aniline], for the setting “at 10 µM”, the relative reporter activity result was “(0.84±0.06 at 10 µM)”.
For the compound `Cc1cn(-c2cc(NC(=O)c3ccccc3)cc(C(F)(F)F)c2)cn1` [compound 14, N-(3-(4-methyl-1H-imidazol-1-yl)-5-(trifluoromethyl)phenyl)benzamide], the EC50 is 8 ± 1 µM. The compound further gave a relative reporter activity under setting [1] of 0.38±0.08.
As for `Nc1cc(-c2nccs2)cc(C(F)(F)F)c1` [compound 53, 3-(thiazol-2-yl)-5-(trifluoromethyl)aniline], the relative reporter activity entry (at 100 µM) is “(0.63±0.10 at 100 µM)”.
Still for that read-out and setting: then `Cc1nc(-c2cc(N)cc(C(F)(F)F)c2)cn1C` [compound 50, 3-(1,2-dimethyl-1H-imidazol-4-yl)-5-(trifluoromethyl)aniline], with “(0.70±0.06 at 100 µM)”.
In the case of `Cc1cc(-c2cc(N)cc(OC(F)(F)F)c2)ccn1` [compound 113, 3-(2-methylpyridin-4-yl)-5-(trifluoromethoxy)aniline], a half-maximal effect (EC50) was put at 13.6 ± 0.6 µM.
In turn, `Nc1cc(-n2ccnc2)cc(C(F)(F)F)c1` [compound 33, 3-(1H-imidazol-1-yl)-5-(trifluoromethyl)aniline] had an EC50 of 4.4 ± 0.9 µM.
In turn, `Cc1cc(-c2cc(N)cc(C#N)c2)ccn1` [compound 109, 3-amino-5-(2-methylpyridin-4-yl)benzonitrile] returned an EC50 of 5.9 ± 2.2 µM. Further, under setting [1], the relative reporter activity is 0.40±0.11.
For `Cc1cc(C(=O)Nc2cc(N)cc(C(F)(F)F)c2)nn1C` [compound 46, N-(3-amino-5-(trifluoromethyl)phenyl)-1,5-dimethyl-1H-pyrazole-3-carboxamide] the same measures were 11 ± 5 µM and 0.20±0.02.
For `Cn1ccc2cc(-c3cc(N)cc(C(F)(F)F)c3)cnc21` [compound 98, 3-(1-methyl-1H-pyrrolo[2,3-b]pyridin-5-yl)-5-(trifluoromethyl)aniline] the same measures were 0.4 ± 0.07 µM and 0.29±0.03.
The matching figures for `CC(=O)c1cc(-c2cc(N)cc(C(F)(F)F)c2)ccn1` [compound 87, 1-(4-(3-amino-5-(trifluoromethyl)phenyl)pyridin-2-yl)ethan-1-one]: 4.6 ± 2.1 µM and 0.30±0.05.
Take `Cc1cn(-c2cccc(NC(=O)Cc3ccccc3Cl)c2)cn1` [compound 103, 2-(2-chlorophenyl)-N-(3-(4-methyl-1H-imidazol-1-yl)phenyl)acetamide]: the EC50 is 1.9 ± 0.5 µM. This compound also had a relative reporter activity under setting [1] of 0.18±0.10.
For the compound `CC(=O)c1cncc(-c2cc(N)cc(C(F)(F)F)c2)c1` [compound 70, 1-(5-(3-amino-5-(trifluoromethyl)phenyl)pyridin-3-yl)ethan-1-one], a half-maximal response (EC50) required 4.6 ± 2.4 µM.
On the same count and under the same terms, then `Cc1cc(-c2cc(N)cc3[nH]ccc23)ccn1` [compound 115, 4-(2-methylpyridin-4-yl)-1H-indol-6-amine], with 3.8 ± 0.7 µM; and `Cc1cc(-c2cc(N)cc(Cl)c2)ccn1` [compound 111, 3-chloro-5-(2-methylpyridin-4-yl)aniline], with 10 ± 7 µM.
The same measure, in the same setting: then `COc1cc(N)cc(-c2ccnc(C)c2)c1` [compound 108, 3-methoxy-5-(2-methylpyridin-4-yl)aniline], with 15 ± 4 µM.
On to `Cc1cc(-c2cc(N)ccc2C(F)(F)F)ccn1` [compound 107, 3-(2-methylpyridin-4-yl)-4-(trifluoromethyl)aniline], for which the relative reporter activity entry (at 50 µM) was “(0.39±0.04 at 50 µM)”.
`CC(=O)c1ccc(-c2cc(N)cc(C(F)(F)F)c2)s1` [compound 57, 1-(5-(3-amino-5-(trifluoromethyl)phenyl)thiophen-2-yl)ethan-1-one] registered a 50% effective concentration (EC50) of 4.4 ± 1.6 µM.
The compound `Nc1cc(-c2ccc3[nH]ccc3c2)cc(C(F)(F)F)c1` [compound 93, 3-(1H-indol-5-yl)-5-(trifluoromethyl)aniline] registered a half-maximal effective concentration (EC50) of 1.4 ± 0.4 µM.
`Cc1cc(N)cc(-c2ccnc(C)c2)c1` [compound 106, 3-methyl-5-(2-methylpyridin-4-yl)aniline]: the relative reporter activity result (at 30 µM) was “(0.44±0.09 at 30 µM)”.
For the compound `CN(C)c1ccc(-c2cc(N)cc(C(F)(F)F)c2)cc1` [compound 95, N4',N4'-dimethyl-5-(trifluoromethyl)-[1,1'-biphenyl]-3,4'-diamine], the relative reporter activity entry (at 20 µM) was “(0.41±0.11 at 20 µM)”.
The compound `Nc1cc(-c2cccc3[nH]ccc23)cc(C(F)(F)F)c1` [compound 99, 3-(1H-Indol-4-yl)-5-(trifluoromethyl)aniline] had a concentration for a half-maximal effect (EC50) of 3 ± 0.2 µM.
In turn, `CC(=O)c1nc(-c2cc(N)cc(C(F)(F)F)c2)cs1` [compound 65, 1-(4-(3-Amino-5-(trifluoromethyl)phenyl)thiazol-2-yl)ethan-1-one] had a relative reporter activity under setting [1] of 0.26±0.05.
Consider `Nc1cc(-c2ccc3sccc3c2)cc(C(F)(F)F)c1` [compound 92, 3-(benzo[b]thiophen-5-yl)-5-(trifluoromethyl)aniline], for which the relative reporter activity result (at 10 µM) was “inactive at 10 µM”.
The compound `Cc1cc(-c2cc(NC(=O)c3cc4ccccc4s3)cc(C(F)(F)F)c2)ccn1` [compound 81, N-(3-(2-methylpyridin-4-yl)-5-(trifluoromethyl)phenyl)benzo[b]thiophene-2-carboxamide] returned an EC50 of 1.2 ± 0.2 µM. Moreover, the relative reporter activity under setting [1] is 0.39±0.05.
On to `Cc1cccc(-c2cc(N)cc(C(F)(F)F)c2)c1` [compound 72, 3'-methyl-5-(trifluoromethyl)-[1,1'-biphenyl]-3-amine], for which the relative reporter activity result (at 30 µM) was “inactive at 30 µM”.
As to `Cn1cc(-c2cccc(N)c2)cn1` [compound 105, 3-(1-methyl-1H-pyrazol-4-yl)aniline], under “at 30 µM”, the relative reporter activity entry was “inactive at 30 µM”.
With `Cc1cn(-c2cc(NC(=O)Cc3cccnc3)cc(C(F)(F)F)c2)cn1` [compound 21, N-(3-(4-methyl-1H-imidazol-1-yl)-5-(trifluoromethyl)phenyl)-2-(pyridin-3-yl)acetamide], the half-maximal effective concentration (EC50) came to 1.4 ± 0.3 µM. The relative reporter activity under setting [1] is on record as 0.21±0.07.
The matching figures for `Cc1cc(-c2cc(N)ccc2OC(F)(F)F)ccn1` [compound 110, 3-(2-methylpyridin-4-yl)-4-(trifluoromethoxy)aniline]: 16 ± 10 µM and 0.34±0.09.
The compound `Nc1cc(-c2ccncc2)cc(C(F)(F)F)c1` [compound 73, 3-(pyridin-4-yl)-5-(trifluoromethyl)aniline] returned an EC50 of 13 ± 4 µM. The compound further came in with a relative reporter activity under setting [1] of 0.18±0.13.
For `Cc1cn(-c2cc(NC(=O)c3ccc(Cl)cc3)cc(C(F)(F)F)c2)cn1` [compound 15, 4-chloro-N-(3-(4-methyl-1H-imidazol-1-yl)-5-(trifluoromethyl)phenyl)benzamide] the same measures were 2.3 ± 0.3 µM and 0.41±0.05.

In general, EC50 refers to the concentration giving half of the maximal effect.
